Test results as given in US7049331B2, “1,2,4-thiadiazole derivatives as melanocortin receptor modulators” (Ortho-McNeil Pharmaceutical, Inc., priority 2001, dated 2006).

Experiments:
Hippocampal Cells = assay: Neurite Cell Outgrowth Assay, hippocampal cells; format: cell-based; conditions: Rattus norvegicus; 50 nM; percent change over the vehicle response; NA = no change/not active
Outline: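 Rat E18 hippocampal or cortical neurons plated at 30,000 cells/well, treated 24 h after plating with compound at 50 nM, refreshed on day 3. At one week, fixed and MAP-2 immunostained with FITC secondary, read by fluorescence; outgrowth given as percent change versus vehicle.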

[1] = test system: human skin transplanted to the SCID mouse; assay: Sebum production: Human Skin-SCID Mouse Chimera Model; format: in vivo; conditions: for % Inh Squalene (Human Sebaceous Lipids) / % Inh Triglycerides (Human Sebaceous Lipids) / % Inh W/E (Human Sebaceous Lipids): 11 Day Treatment; for % Inh Cholesterol Ester, Lipid Accumulation / % Inh Cholesterol, Lipid Accumulation / % Inh Cholesterol, Sebaceous Lipid Synthesis / % Inh Squaline, Lipid Accumulation / % Inh Squaline, Sebaceous Lipid Synthesis / % Inh Triglycerides, Lipid Accumulation / % Inh Triglycerides, Sebaceous Lipid Synthesis / % Inh Wax Esters, Lipid Accumulation / % Inh Wax Esters, Sebaceous Lipid Synthesis: 30 Day Treatment
From the text: C.B-17 scid/scid mice (Taconic, Germantown, N.Y.) were used for grafting at 5–6 weeks of age. Full thickness human facial skin was shaved to ˜0.4 mm using a Forman Dermatome. The skin shavings were washed 3 times in antibiotics and antimycotics (penicillin, streptomycin, fungizone) (Life technologies) in Dulbecco's Modified Eagle Medium (DMEM, Life Technologies). Eliptical skin ˜2.0–2.5×1.0–1.5 was grafted onto the prepared graft bed and sutured using 4.0 silk. During surgical procedures the mice were anaesthetized using a mixture of Ketaset (0.16 mg/g body weight) and Rompun (8.0 μg/g body weight).
It is well accepted that the wound healing process of the transplanted skin in the SCID mouse takes one month, at which time the human skin can be used for experimental purposes. […] Maximum size of the glands was observed 3 month post transplantation. The glands retained their capability to produce human specific sebum and the glandular tissue expressed human specific markers including MC5-R. Since glands reached their maximum size at 2–3 month post transplantation the effects of inhibitors of sebum secretion was tested at this point.
Mice at 2–3 month post transplantation with human facial skin were used for the studies. The graft area was treated with the test compound at the desired concentration(s) dissolved in polyethylene glycol-ethanol (20 μl/2 cm^2). Controls were treated with vehicle alone. The test compounds were applied daily, excluding weekends. Sebum secretion was determined using Sebutape at 15 days and 30 days following treatment.
The termination of the experiment was determined by preliminary clinical evaluation of sebum production using SEBUTAPE. At this time human skin grafts were excised and representative samples were collected for histological evaluation. More particularly, 2 mm punch biopsies were prepared and used for evaluation of lipid synthesis and total lipid accumulation in the treated tissues.
The collected—2 mm punch biopsies were placed individually into 96 well plates in Krebs buffer and labeled with 10 μCi of ^14C acetate for 3 hours. Following this labeling period the samples were washed in medium and 5 biopsies pooled, weighed, and used for lipid extraction. The lipid extraction and analysis by HPTLC was the same as described for tissue culture derived cells. […]

human sebocytes = assay: cells; format: cell-based; conditions: read-out: % Inh Unknown lipid synthesis
[2] = biological target: T1, melanocortin MC-4 receptor (Homo sapiens, UniProt P32245); assay: MC-4 receptor binding (Filtration); conditions: cell prints its own unit nm in the Filtration (μM) column; read-out: IC50 MC-4 (Filtration)
T1 construct: purchased Receptor Biology Inc
Description: The procedures described above for the melanocortin MC-4 receptor were repeated for the melanocortin MC-3 receptor. Following the procedures described, representative compounds of the present invention were tested for binding in the MC-4 and/or MC-3 assay, as listed in Table 4.

[3] = 30 days of topical treatment with 0.05% and 0.01% solution

T1 sequence (P32245 whole entry): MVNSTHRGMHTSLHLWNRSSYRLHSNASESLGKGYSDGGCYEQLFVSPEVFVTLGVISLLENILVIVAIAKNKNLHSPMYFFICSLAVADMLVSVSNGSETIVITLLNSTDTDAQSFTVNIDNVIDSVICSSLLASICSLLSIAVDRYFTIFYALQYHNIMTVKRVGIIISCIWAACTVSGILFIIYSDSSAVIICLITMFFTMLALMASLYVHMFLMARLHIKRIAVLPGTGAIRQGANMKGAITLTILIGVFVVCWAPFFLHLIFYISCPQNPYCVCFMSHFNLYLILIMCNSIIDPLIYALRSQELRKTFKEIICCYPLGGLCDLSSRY

Structure (SMILES): COc1ccc(N(C)c2nc(-c3ccccc3)[n+](-c3ccc(C)cc3)s2)cc1 [Compound 50]
- activation at 0.05 µM (Hippocampal Cells): 46%

Structure (SMILES): COc1ccccc1-c1nc(Nc2ccccc2)s[n+]1-c1ccccc1OC.[Br-] [Compound 74, 2-(2-methoxyphenyl)-3-(2-methoxyphenyl)-5-phenylamino-[1,2.4]thiadiazol-2-ium]
- % Inh Squalene (Human Sebaceous Lipids) ([1]; 0.01% topical): 0%
- % Inh Triglycerides (Human Sebaceous Lipids) ([1]; 0.01% topical): 0%
- % Inh W/E (Human Sebaceous Lipids) ([1]; 0.01% topical): 25%
- % Inh Cholesterol Ester, Lipid Accumulation ([1]; 0.01% topical): 44%
- % Inh Cholesterol, Lipid Accumulation ([1]; 0.01% topical): 33%
- % Inh Cholesterol, Sebaceous Lipid Synthesis ([1]; 0.01% topical): 33%
- % Inh Squaline, Lipid Accumulation ([1]; 0.01% topical): 82%
- % Inh Squaline, Sebaceous Lipid Synthesis ([1]; 0.01% topical): 80%
- % Inh Triglycerides, Lipid Accumulation ([1]; 0.01% topical): 75%
- % Inh Triglycerides, Sebaceous Lipid Synthesis ([1]; 0.01% topical): 75%
- % Inh Wax Esters, Lipid Accumulation ([1]; 0.01% topical): 86%
- % Inh Wax Esters, Sebaceous Lipid Synthesis ([1]; 0.01% topical): 86%
- % Inh Cholesterol Ester, Lipid Accumulation ([1]; 0.05% topical): 21%
- % Inh Cholesterol, Lipid Accumulation ([1]; 0.05% topical): 82%
- % Inh Cholesterol, Sebaceous Lipid Synthesis ([1]; 0.05% topical): 82%
- % Inh Squaline, Lipid Accumulation ([1]; 0.05% topical): 73%
- % Inh Squaline, Sebaceous Lipid Synthesis ([1]; 0.05% topical): 90%
- % Inh Triglycerides, Lipid Accumulation ([1]; 0.05% topical): 90%
- % Inh Triglycerides, Sebaceous Lipid Synthesis ([1]; 0.05% topical): 90%
- % Inh Wax Esters, Lipid Accumulation ([1]; 0.05% topical): 93%
- % Inh Wax Esters, Sebaceous Lipid Synthesis ([1]; 0.05% topical): 93%
- % Inh Squalene (Human Sebaceous Lipids) ([1]; 0.1% topical): 70%
- % Inh Triglycerides (Human Sebaceous Lipids) ([1]; 0.1% topical): 50%
- % Inh W/E (Human Sebaceous Lipids) ([1]; 0.1% topical): 80%
- % Inh Squalene (Human Sebaceous Lipids) ([1]; 0.5% topical): 0%
- % Inh Triglycerides (Human Sebaceous Lipids) ([1]; 0.5% topical): 0%
- % Inh W/E (Human Sebaceous Lipids) ([1]; 0.5% topical): 10%
- de novo synthesis of sebaceous lipids [1, 3]: significantly decreased
- total sebaceous lipid accumulation [1, 3]: significantly decreased
- down regulation of sebaceous lipids ([1]; topical treatment for 15 days with 0.05% and 0.005% solutions): not sufficient to down regulate the lipids
- Visual evaluation of the sebaceous gland ([1]; topical treatment with 0.1% solution): visible shrinkage of the sebaceous gland and down regulation of sebaceous lipids
- inhibition at 0.4 µM (human sebocytes): 75%
- inhibition at 0.6 µM (human sebocytes): 80%

Structure (SMILES): c1ccc(CNc2nc(-c3ccccc3)[n+](-c3ccccc3)s2)cc1 [Compound 84]
- IC50 [2]: 0.082 µM
